Assay results reported in patent publication US7414068B2, “Benzopyran derivatives substituted with secondary amines including tetrazole, method for the preparation thereof and pharmaceutical compositions containing them” (Dongbu Hannong Chemical Co., Ltd., priority 2002, dated 2008).

Assays:
[1] = tested on: A7r5 (Rat thoracic aorta smooth muscle cell line, ATCC); assay: Inhibitory effect on accumulation of reactive oxygen species induced by hydrogen peroxide (DCF fluorescence); format: cell-based; conditions: hydrogen peroxide 50 μM
Description: To measure reactive oxygen species, H2DCFDA (2′,7′-dichlorodihydrofluorescein diacetate, Molecular Probes, Eugene, Oreg., USA) was used. If H2DCFDA, nonpolar material is transferred through cell membrane, it is changed to H2DCF (2′,7′-dichlorodihydrofluorescein), material impermeable to membrane by intracellular esterase. H2DCF is changed to high fluorescent DCF (2′,7′-dichlorofluorescein) by low fluorescent peroxidated oxygen or hydroxyl radical. H2DCFDA solution (10 mM) dissolved in DMSO was used before the experiment. A7r5 (Rat thoracic aorta smooth muscle cell line, ATCC), as smooth muscle cell was incubated in DMEM (Dulbecco's Modified Eagle's Medium) containing 10% of FBS (fetal bovine serum). Thereafter, the cell was incubated in 48 well plate for two days, then was incubated in serum-free DMEM for 24 hours to use for experiment. Krebs-linger buffer (Krebs-Ringer (K-R), 99.01 mM NaCl, 4.69 mM KCl, 1.87 mM CaCl2, 1.2 mM MgSO4, 1.03 mM K2HPO4, 25 mM NaHCO3, 20 mM Hepes, 11.1 mM D-glucose, pH 7.4) was used for washing and process of cell monolayers. After cell monolayers media was removed, each of test compounds (0.2 ml) was pre-treated to media, then incubated at 37° C. for 15 min. Final concentration was 50 μM, hydrogen peroxide was added. The media was allowed to stand for 30 min. The said solution from media was removed. The media was washed one time. H2DCFDA 20 μM was added to the media. The media was allowed to stand for 30 min. the media was washed two times. Thereafter, oxidation of H2DCFDA was measured by Fluorescence reader (FL600, Biotech Instruments, 485 nm excitation, 530 nm emission).

[2] = tested on: Low density lipoprotein of human (human LDL); assay: Inhibitory effect against lipid peroxidation induced by copper (LDL oxidation, MDA); format: biochemical; conditions: CuSO4 10 μM, 37° C. 18 hours
Description: Low density lipoprotein of human (human LDL, sigma) was dissolved in water to be final concentration of 1 mg/ml. To remove EDTA (ethylenediamine tetraacetate), the aqueous solution was dialyzed in phosphate buffer at 4° C. for 18 hours. At this dialysis, phosphate buffer was changed three times. Phosphate buffer was added to LDL (100 μg LDL protein/ml) which EDTA was removed from the aqueous solution, additionally thereto CuSO4 10 μM as oxidant was added. […] Group to which CUSO4 was not added was used as blank group. Group to which CUSO4 and vehicle were added in place of test compounds was used as control group. The mixture was incubated at 37° C. for 18 hours. EDTA […] was added to the mixture to terminate the oxidation reaction.
As shown in example 4, Cu^2+ facilitates the oxidation reaction to produce malondialdehyde (MDA), lipid peroxidation product. The MDA quantification is achieved by reacting samples with 2-thiobarbituric acid (TBA) and measuring the absorbance at 530 nm. Also, 1,1,3,3-tetramethoxypropane purchased from sigma was used as standard materials. Inhibitory effect against lipid peroxidation of the test compounds was measured by MDA (nmol) to protein (mg). Decrease of MDA to that of control group was calculated.

new born rats = assay: Protective effect on ischemic-hypoxic brain injury (MRS); format: in vivo, rat; conditions: for Lip/Cr / Lip/NAA: MRS
From the text: By using the said report, the protective effect on brain damage induced by hypoxia […] was investigated. [Van der A. Toorn et al. Magnetic Resonance in Medicine, 1996, 36, 914-922]. It was reported that the lipid peak was increased in MRS by ischemic neuronal cell injury due to the destruction of cell membrane including blood-brain barrier. Also, it was reported that increase of lipid concentration was correlated to apoptosis. [A. Bizzi et al., Magnetic Resonance Imaging, 1996, 14, 581-592]. Therefore, it was reported that Lipid/NAA and Lipid/Cr obtained by comparing lipid with N-acetylaspartate (NAA) and creatine (Cr) as marker of neuronal cell was correlated to morphological changes and severity of apoptosis on hypoxic brain damage.
In new born rats (within 7 days, 10˜15 g), left carotid artery were intermitted for 3 hours to induce hypoxia. Test compounds were intraperitoneally injected before 1 hour of hypoxia. […] of which the carotid artery was intermitted was used as ischemic-hypoxic model, right eye of which the carotid artery was not intermitted was used as hypoxic model. Magnetic resonance spectrum was obtained from both models, after histological test, accomplished in one day from damage. From the said result, Lipid/NAA or Lipid/Cr was measured. Also, viability and morphological score by macroscopic observation of infarct volume was calculated.

[3] = Acute oral toxicity test in rats; conditions: SD, rat, in vivo, single oral dose, suspended in 0.5% methyl cellulose, read-out: lethal dose (LD50) for oral administration
How it was run: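 Six-week-old SPF SD rats, two per group, received compounds orally as suspensions in 0.5% methyl cellulose. Endpoints were clinical signs, body weight, mortality, haematology, serum biochemistry and macroscopic necropsy of organs and tissues.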

retina ganglion cell = assay: Protective effect on neuronal cells damage by axotomy of optic nerve; format: in vivo, rat; conditions: 20 μM, injected vitreously, after axotomy of optic nerve
Description: Test compounds were dissolved in DMSO to prepare stock solution (100 mM), which was diluted with physiological saline to the 20 μM. 10 μl of […] was injected vitreously.
Adult rats were anesthetized with chloral hydrate (400 mg/Kg), then optic nerve was exposed by bulbar conjunctiva. Thereafter, nerve corresponding to 0.5 mm or 3 mm from eye ball was excided, respectively. Or through upper eyelid cutaneous amputation was accomplished, then part of lacrimal gland was removed. […] The optic nerve was excised about 5 mm back from eye ball. Blood vessels of retina supplying blood to retina was not impaired. Condition of blood vessels of retina was checked with funduscope. Fluorogold (Fluorochrome Inc. 5% in PBS (phosphate buffered solution) was administrated to Half of test group, in the retrograde after axotomy of optic nerve. To investigate cell survival of the ganglion after axotomy, eyes was removed from rats, then retina was isolated in 3 days, 1 week, 2 weeks, 4 weeks, 2 months, 4 months, and 6 months. The isolated retina was investigated by transmission electron microscope. For quantitative analysis, at the same time tissue of retina was prepared. The prepared tissue was investigated by immunochemical dyeing or fluorescent microscope to which 530˜560 nm filter was installed.

[4] = Hypoxic, 50 mg/kg intraperitoneally

COC(OC)[C@@]1(C)Oc2ccc(N)cc2[C@H](N(Cc2nnn(C)n2)c2ccc(Cl)cc2)[C@H]1O [Example 11, (2S,3R,4S)-6-amino-4-[N-(4-chlorophenyl)-N-(2-methyl-2H-tetrazol-5-ylmethyl)amino]-3-hydroxy-2-methyl-2-dimethoxymethyl-3,4-dihydro-2H-1-benzopyran]
Inhibitory(%) against reactive oxygen species accumulation ([1]; addition 3 μM): 6%
Inhibitory(%) against reactive oxygen species accumulation ([1]; addition 10 μM): 82%
Inhibitory(%) against reactive oxygen species accumulation ([1]; addition 30 μM): 124%
Inhibitory effect(%) against lipid peroxidation induced by copper ([2]; Addition 10^−5 M): 63.9%
Inhibitory effect(%) against lipid peroxidation induced by copper ([2]; Addition 10^−6 M): 54.9%
Inhibitory effect(%) against lipid peroxidation induced by copper ([2]; Addition 10^−7 M): 27.3%
Survival (%) (new born rats; 50 mg/kg): 79%
Survival (animals surviving/total) (new born rats; 50 mg/kg): 19/24
Morphological score (new born rats; 50 mg/kg, macroscopic observation of infarct volume): 1.4
Lip/Cr (new born rats; [4]): 1.55
Lip/NAA (new born rats; [4]): 1.69
Lip/NAA (new born rats; Ischemic-hypoxic, 50 mg/kg intraperitoneally 1 hour before hypoxia): 5.43
Lip/Cr (new born rats; Ischemic-hypoxic, 50 mg/kg intraperitoneally): 5.16
LD50 [3]: > 2000 mg/kg
Survival of the ganglion cell(%) (retina ganglion cell): 43%
Survival of the ganglion cell(%) (retina ganglion cell; listed as compound of formula 11): 43%
